{
  "source": "patent US11926812B2",
  "about": "“Pressure-driven, adjustable throughput fluidics for tissue and cell perifusions” (EnTox Sciences, Inc., priority 2017, dated 2024)",
  "tested_on": "liver slices",
  "assay": "Effect of acetaminophen on liver oxygen consumption rate (OCR) in microperifusion prototype",
  "format": "cell-based, rat",
  "conditions": "two 1 mg liver slices per channel, after about three hours baseline, triplicate channels",
  "data": [
    {"smiles": "CC(=O)Nc1ccc(O)cc1", "note": "[acetaminophen]", "values": [
      {"measurement": "OCR lowered", "setting": "6 mM acetaminophen", "result": 40, "unit": "%"},
      {"measurement": "OCR lowered", "setting": "15 mM acetaminophen", "result": 60, "unit": "%"}
    ]}
  ]
}
